Test results reported in patent US9957274B2, “Indane inhibitors of EED and methods of their use” (AbbVie Inc., priority 2016, dated 2018).

Tests used:
EED = EED (Homo sapiens, UniProt O75530); test: EED TR-FRET Binding Assay (modified LanthaScreen competition assay)
How it was run: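 Competition binding in a modified LanthaScreen format, in 20 mM Tris-HCl pH 7.5, 200 mM NaCl, 0.01% Tween-20, 10 uM DTT and 0.05% BSA. Reactions ran 1 hour at 25° C before TR-FRET detection.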

[1] = test system: H3K27me3 in OCILY19 cells; test: H3K27me3 AlphaLISA assay in OCILY19 cells; assay type: cell-based; settings: Homo sapiens, OCI-LY19, 144 h, 6 days with compound, read-out: OCILY-19 IC50
Experimental: (§1) 5,000 cells were plated into each well of 96-well Corning CellBing cell culture plates and incubated overnight at 37° C. in a humidified CO2 incubator. […] The cell culture plates were then incubated for 6 more days. H3K27me3 AlphaLISA assay was performed on the cell culture samples by using AlphaLISAR® H3K27me3 Cellular Detection Kit (PerkinElmer) and 96-well white half-area plates (PerkinElmer).

H3K27me3 in G401 cells = test: H3K27me3 AlphaLISA assay in G401 cells; assay type: cell-based; settings: Homo sapiens, G-401, 144 h, 6 days with compound
Experimental: as §1, with “G401 cells (ATCC catalog # CRL-1441) were maintained in McCoy's 5a medium (ATCC) supplemented with 10% heat-inactivated FBS (HyClone) at 37° C. in a humidified CO2 incubator. OCILY19 cells (DSMZ catalog #ACC 528) were maintained in IMDM (Invitrogen) supplemented with 10% human serum (Sigma) at 37° C. in a humidified CO2 incubator. 5,000” for “5,000”

Pfeiffer cells = test: CTG cell viability assay (CellTiter-Glo); assay type: cell-based; settings: Homo sapiens, 240 h; Pfeiffer cells, 10 days with compound, CellTiter-Glo; read-out: Cell Proliferation IC50
Experimental: 1,000 cells were plated into each well of 96-well Corning CellBing cell culture plates and incubated overnight at 37° C. in a humidified CO2 incubator. […] The cell culture plates were then incubated for 10 more days. CTG cell viability assay was performed on the cell culture samples by using CellTiter-Glo® Luminescent Cell Viability Assay Kit (Promega).

Sequence of EED (O75530 whole entry): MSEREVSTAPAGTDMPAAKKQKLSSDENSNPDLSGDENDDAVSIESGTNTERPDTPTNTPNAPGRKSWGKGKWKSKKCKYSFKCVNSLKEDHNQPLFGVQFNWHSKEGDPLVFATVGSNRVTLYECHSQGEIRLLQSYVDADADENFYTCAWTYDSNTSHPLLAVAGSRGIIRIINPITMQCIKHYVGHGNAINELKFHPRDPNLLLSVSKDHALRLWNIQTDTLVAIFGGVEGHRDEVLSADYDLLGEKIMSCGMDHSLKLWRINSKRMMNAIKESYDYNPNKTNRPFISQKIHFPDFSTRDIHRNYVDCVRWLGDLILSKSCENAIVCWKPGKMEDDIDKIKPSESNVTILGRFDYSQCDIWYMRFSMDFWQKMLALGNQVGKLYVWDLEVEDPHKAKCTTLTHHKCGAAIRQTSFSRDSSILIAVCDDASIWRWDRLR

Compound | IC50 (EED) [nM] | IC50 [1] [nM] | IC50 (H3K27me3 in G401 cells) [nM] | IC50 (Pfeiffer cells) [nM]
CN(C)[C@@H]1CN(C2CCc3cccc(F)c32)C[C@H]1c1ccc(N2CCN(c3ccncn3)CC2)cc1 (mixture of isomers) [Example 74, rac-(3S,4R)-1-(7-fluoro-2,3-dihydro-1H-inden-1-yl)-N,N-dimethyl-4-{4-[4-(pyrimidin-4-yl)piperazin-1-yl]phenyl}pyrrolidin-3-amine] | 0.633 | 363 | 185 | 107
CN(C)[C@@H]1CN(C2CCc3cccc(F)c32)C[C@H]1c1ccc(N2CCN(c3ccccn3)CC2)cc1 (mixture of isomers) [Example 75, rac-(3S,4R)-1-(7-fluoro-2,3-dihydro-1H-inden-1-yl)-N,N-dimethyl-4-{4-[4-(pyridin-2-yl)piperazin-1-yl]phenyl}pyrrolidin-3-amine] | 0.906 | 3170 | 2300 | 1760
CN(C)C(=O)c1ccc2c([C@H]3CN(C4CCc5cccc(F)c54)C[C@@H]3N(C)C)cn(C)c2c1 (mixture of isomers) [Example 87, rac-3-[(3S,4R)-4-(dimethylamino)-1-(7-fluoro-2,3-dihydro-1H-inden-1-yl)pyrrolidin-3-yl]-N,N,1-trimethyl-1H-indole-6-carboxamide] | 0.481 | 178 | 62.6 | 94.1
CN(C)[C@H]1CN(C2CCc3cccc(F)c32)C[C@@H]1c1cn(C)c2c(C(=O)N3CC(F)C3)cccc12 (mixture of isomers) [Example 103, rac-{3-[(3S,4R)-4-(dimethylamino)-1-(7-fluoro-2,3-dihydro-1H-inden-1-yl)pyrrolidin-3-yl]-1-methyl-1H-indol-7-yl}(3-fluoroazetidin-1-yl)methanone] | 1.01 | 183 | 30.6 | 64.8
CN(C)[C@H]1CN(C2CCc3cccc(F)c32)C[C@@H]1c1cn(C)c2c(C(=O)N3CC(O)C3)cccc12 (mixture of isomers) [Example 106, rac-{3-[(3S,4R)-4-(dimethylamino)-1-(7-fluoro-2,3-dihydro-1H-inden-1-yl)pyrrolidin-3-yl]-1-methyl-1H-indol-7-yl}(3-hydroxyazetidin-1-yl)methanone] | 0.782 | 69.5 | 34.4 | 74.9
CN(C)[C@H]1CN(C2CCc3cccc(F)c32)C[C@@H]1c1cn(C)c2cc(C(=O)N3CC(O)C3)ccc12 (mixture of isomers) [Example 107, rac-{3-[(3S,4R)-4-(dimethylamino)-1-(7-fluoro-2,3-dihydro-1H-inden-1-yl)pyrrolidin-3-yl]-1-methyl-1H-indol-6-yl}(3-hydroxyazetidin-1-yl)methanone] | 1.08 | 497 | 84 | 284
CN(C)[C@H]1CN(C2CCc3cccc(F)c32)C[C@@H]1c1cn(C)c2c(C(=O)N3CC(S(C)(=O)=O)C3)cccc12 (mixture of isomers) [Example 110, rac-{3-[(3S,4R)-4-(dimethylamino)-1-(7-fluoro-2,3-dihydro-1H-inden-1-yl)pyrrolidin-3-yl]-1-methyl-1H-indol-7-yl}[3-(methanesulfonyl)azetidin-1-yl]methanone] | 1.05 | 379 | 225 | 111
CN(C)[C@H]1CN(C2CCc3cccc(F)c32)C[C@@H]1c1cn(C)c2c(C(=O)N3CCNCC3)cccc12 (mixture of isomers) [Example 119, rac-{3-[(3S,4R)-4-(dimethylamino)-1-(7-fluoro-2,3-dihydro-1H-inden-1-yl)pyrrolidin-3-yl]-1-methyl-1H-indol-7-yl}(piperazin-1-yl)methanone] | 1.99 | 214 | 120 | 247
CN(C)[C@H]1CN(C2CCc3cccc(F)c32)C[C@@H]1c1cn(C)c2c(C(=O)N3CCN(S(=O)(=O)N(C)C)CC3)cccc12 (mixture of isomers) [Example 124, rac-4-{3-[(3S,4R)-4-(dimethylamino)-1-(7-fluoro-2,3-dihydro-1H-inden-1-yl)pyrrolidin-3-yl]-1-methyl-1H-indole-7-carbonyl}-N,N-dimethylpiperazine-1-sulfonamide] | 1.56 | 207 | 86.4 | 349
CN1CCN(c2cccc3c([C@H]4CN(C5CCc6cccc(F)c65)C[C@@H]4N(C)C)cn(C)c23)CC1=O (mixture of isomers) [Example 129, rac-4-{3-[(3S,4R)-4-(dimethylamino)-1-(7-fluoro-2,3-dihydro-1H-inden-1-yl)pyrrolidin-3-yl]-1-methyl-1H-indol-7-yl}-1-methylpiperazin-2-one] | 0.739 | 102 | 186 | 98.1
CN(C)C(=O)N1CCN(c2cccc3c([C@H]4CN(C5CCc6cccc(F)c65)C[C@@H]4N(C)C)cn(C)c23)CC1 (mixture of isomers) [Example 131, rac-4-{3-[(3S,4R)-4-(dimethylamino)-1-(7-fluoro-2,3-dihydro-1H-inden-1-yl)pyrrolidin-3-yl]-1-methyl-1H-indol-7-yl}-N,N-dimethylpiperazine-1-carboxamide] | 0.406 | 158 | 57.3 | 122
CN(C)[C@H]1CN(C2CCc3cccc(F)c32)C[C@@H]1c1cn(C)c2c(C(=O)N3CCN(S(=O)(=O)c4cncn4C)CC3)cccc12 (mixture of isomers) [Example 135, rac-{3-[(3S,4R)-4-(dimethylamino)-1-(7-fluoro-2,3-dihydro-1H-inden-1-yl)pyrrolidin-3-yl]-1-methyl-1H-indol-7-yl}[4-(1-methyl-1H-imidazole-5-sulfonyl)piperazin-1-yl]methanone] | 1.45 | 719 | 108 | 115
Cc1n[nH]c(C)c1S(=O)(=O)N1CCN(C(=O)c2cccc3c([C@H]4CN(C5CCc6cccc(F)c65)C[C@@H]4N(C)C)cn(C)c23)CC1 (mixture of isomers) [Example 136, rac-{3-[(3S,4R)-4-(dimethylamino)-1-(7-fluoro-2,3-dihydro-1H-inden-1-yl)pyrrolidin-3-yl]-1-methyl-1H-indol-7-yl}[4-(3,5-dimethyl-1H-pyrazole-4-sulfonyl)piperazin-1-yl]methanone] | 2.05 | 617 | 332 | 1520
CN(C)[C@H]1CN(C2CCc3cccc(F)c32)C[C@@H]1C1CCN(c2cccnc2)CC1 (mixture of isomers) [Example 149, rac-(3R,4S)-1-(7-fluoro-2,3-dihydro-1H-inden-1-yl)-N,N-dimethyl-4-[1-(pyridin-3-yl)piperidin-4-yl]pyrrolidin-3-amine] | 2.58 | 1140 | 636 | 970
CN(C)[C@H]1CN(C2CCc3cccc(F)c32)C[C@@H]1C1CCN(c2ccccn2)CC1 (mixture of isomers) [Example 152, rac-(3R,4S)-1-(7-fluoro-2,3-dihydro-1H-inden-1-yl)-N,N-dimethyl-4-[1-(pyridin-2-yl)piperidin-4-yl]pyrrolidin-3-amine] | 2.04 | 1790 | 476 | 804
CNC(=O)c1ccc(N2CCC([C@H]3CN(C4CCc5cccc(F)c54)C[C@@H]3N(C)C)CC2)nc1 (mixture of isomers) [Example 154, rac-6-{4-[(3S,4R)-4-(dimethylamino)-1-(7-fluoro-2,3-dihydro-1H-inden-1-yl)pyrrolidin-3-yl]piperidin-1-yl}-N-methylpyridine-3-carboxamide] | 1.98 | 493 | 372 | 455
CN(C)[C@H]1CN(C2CCc3cccc(F)c32)C[C@@H]1c1nn(C)c2ccccc12 (mixture of isomers) [Example 156, rac-(3R,4S)-1-(7-fluoro-2,3-dihydro-1H-inden-1-yl)-N,N-dimethyl-4-(1-methyl-1H-indazol-3-yl)pyrrolidin-3-amine] | 1.41 | 293 | 212 | 375
CN(C)[C@@H]1CN(C2CCc3cccc(F)c32)C[C@H]1c1ccc(N2CCN(C(=O)CS(C)(=O)=O)CC2)nc1 (mixture of isomers) [Example 157, rac-1-(4-{5-[(3R,4S)-4-(dimethylamino)-1-(7-fluoro-2,3-dihydro-1H-inden-1-yl)pyrrolidin-3-yl]pyridin-2-yl}piperazin-1-yl)-2-(methanesulfonyl)ethan-1-one] | 1.4 | 205 | 227 | 354
CN(C)[C@@H]1CN(C2CCc3cccc(F)c32)C[C@H]1c1ccc(-c2cnn(CC(N)=O)c2)nc1 (mixture of isomers) [Example 158, rac-2-(4-{5-[(3R,4S)-4-(dimethylamino)-1-(7-fluoro-2,3-dihydro-1H-inden-1-yl)pyrrolidin-3-yl]pyridin-2-yl}-1H-pyrazol-1-yl)acetamide] | 1.37 | 87.2 | 127 | 385
